Source: the supplement of paper PMC10307832

How the values were obtained:
Experiment in all cases: relative viability (nuclei count vs DMSO), 5 days (fraction); higher = more cells survive
Dasatinib + Pemetrexed = compound: Cc1nc(Nc2ncc(C(=O)Nc3c(C)cccc3Cl)s2)cc(N2CCN(CCO)CC2)n1 [Dasatinib] + Nc1nc2[nH]cc(CCc3ccc(C(=O)N[C@@H](CCC(=O)O)C(=O)O)cc3)c2c(=O)[nH]1 [Pemetrexed] (partner 0.2 µM)
Summary of the method: (§1)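 Lung cancer cell lines in 1536-well plates got either a single drug or a fixed anchor-drug dose together with five library-drug doses (not always all listed) in √10 steps, by pin tool, on the day after seeding. Nuclei were counted after 5 days, and relative viability is the treated-to-vehicle ratio of nuclei counts. Values are medians of duplicate plates.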

XMD13-2 + Phenformin = compound: C1CC1C(=O)NC2=NNC3=C2C=CC(=C3)C4=CC(=CC=C4)C(=O)NC5CC5 [XMD13-2] + N=C(N)NC(=N)NCCc1ccccc1 [Phenformin] (partner 250 µM)
Summary of the method: as §1

XMD13-2 + Navitoclax = compound: C1CC1C(=O)NC2=NNC3=C2C=CC(=C3)C4=CC(=CC=C4)C(=O)NC5CC5 [XMD13-2] + CC1(C)CCC(c2ccc(Cl)cc2)=C(CN2CCN(c3ccc(C(=O)NS(=O)(=O)c4ccc(N[C@H](CCN5CCOCC5)CSc5ccccc5)c(S(=O)(=O)C(F)(F)F)c4)cc3)CC2)C1 [Navitoclax] (partner 0.5 µM)
Summary of the method: as §1

ALW-II-49-7 + Phenformin = compound: Cc1ccc(C(=O)Nc2cccc(C(F)(F)F)c2)cc1Nc1cncc(C(N)=O)c1 [ALW-II-49-7] + N=C(N)NC(=N)NCCc1ccccc1 [Phenformin] (partner 250 µM)
Summary of the method: as §1

Cell Line	relative viability (Dasatinib + Pemetrexed; first compound 0.005 µM)	relative viability (Dasatinib + Pemetrexed; first compound 0.01581 µM)	relative viability (Dasatinib + Pemetrexed; first compound 0.05 µM)	relative viability (Dasatinib + Pemetrexed; first compound 0.1581 µM)	relative viability (Dasatinib + Pemetrexed; first compound 0.5 µM)	relative viability (XMD13-2 + Phenformin; first compound 0.05 µM)	relative viability (XMD13-2 + Phenformin; first compound 0.1581 µM)	relative viability (XMD13-2 + Phenformin; first compound 0.5 µM)	relative viability (XMD13-2 + Phenformin; first compound 1.581 µM)	relative viability (XMD13-2 + Phenformin; first compound 5 µM)	relative viability (XMD13-2 + Navitoclax; first compound 0.05 µM)	relative viability (XMD13-2 + Navitoclax; first compound 0.1581 µM)	relative viability (XMD13-2 + Navitoclax; first compound 0.5 µM)	relative viability (XMD13-2 + Navitoclax; first compound 1.581 µM)	relative viability (XMD13-2 + Navitoclax; first compound 5 µM)	relative viability (ALW-II-49-7 + Phenformin; first compound 0.08 µM)	relative viability (ALW-II-49-7 + Phenformin; first compound 0.253 µM)	relative viability (ALW-II-49-7 + Phenformin; first compound 0.8 µM)	relative viability (ALW-II-49-7 + Phenformin; first compound 2.53 µM)	relative viability (ALW-II-49-7 + Phenformin; first compound 8 µM)
LU99A	0.191	0.158	0.192	0.176	0.16	1.08	0.752	0.833	0.885	0.852	0.927	0.741	0.811	0.805	0.523	0.845	0.923	0.82	0.988	0.746
LXF-289	0.918	0.987	1.13	0.687	0.205	0.538	0.536	0.561	0.551	0.527	0.965	0.956	0.988	0.914	0.93	0.515	0.554	0.556	0.536	0.526
NCI-H23	0.549	0.528	0.59	0.402	0.384	1	0.796	0.802	0.725	0.916	1.02	0.767	0.822	0.78	0.82	0.855	0.759	0.705	0.857	0.898
NCI-H322M	0.576	0.495	0.394	0.273	0.231	0.858	0.84	0.774	0.782	0.905	1.19	1.19	1.44	1.15	1.14	0.684	0.697	0.711	0.777	0.612
NCI-H441	0.305	0.259	0.286	0.225	0.27	1.06	0.801	0.883	0.884	0.871	0.93	0.685	0.715	0.615	0.762	0.979	0.682	0.817	0.928	0.67
NCI-H460	0.0609	0.062	0.0522	0.0587	0.0433	0.589	0.537	0.57	0.486	0.542	1.34	1.23	1.28	1.02	1.2	0.425	0.414	0.561	0.559	0.372
NCI-H520	0.51	0.358	0.285	0.138	0.138	0.529	0.604	0.591	0.529	0.499	1.17	1.2	1.08	1.01	0.501	0.57	0.604	0.624	0.681	0.562
